We go through 1 compound from US9445987B2, “Ceramide production enhancer and moisturizer” (Kao Corporation, priority 2009, dated 2016).

The test system of the experiment is Normal human epidermal keratinocytes (NHEK(F)). Description: Verification of ceramide production enhancing effect (Test Example 2 and Reference Example). Type of experiment: cell-based. The method, then: Normal human epidermal keratinocytes (trade name: NHEK(F), manufactured by Kurabo Industries, Ltd.) were cultured under the conditions of 37° C. and 5% CO2, in a culture fluid (trade name: EpiLife-KG2, manufactured by Kurabo Industries, Ltd.) using a culture plate.
Thereafter, the culture fluid was exchanged with EpiLife-KG2 from which growth factors such as epidermal growth factor had been eliminated, and a solution in which concentration of toosendanin was adjusted to 1 mM (574 ppm), or a control solution (50% ethanol) was added to the culture fluid in an amount of 0.01%.
The cells were cultured for 3 days, and then the respective cells were collected from each well.
An organic phase obtained by extracting lipids from the collected cells by the Blight and Dyer method, was transferred into a glass tube, and was dried to solid in nitrogen stream. Subsequently, the dried product was redissolved in chloroform and methanol, and this was used as a lipid sample.
Further, 0.1N NaOH and a 1% aqueous SDS solution were added to the cells from which lipids had been extracted, and the mixture was heated at 60° C. for 2 hours to thereby solubilize proteins. The mixture was cooled to room temperature, and then 2N HCl was added for neutralization. The amount of proteins was quantified by the BCA method. […]

In the case of `CC(=O)O[C@@H]1C[C@H](O)[C@@]23CO[C@@H](O)[C@]1(C)[C@@H]2C[C@@H](O)[C@]1(C)[C@@H]3C(=O)[C@H](OC(C)=O)[C@@]2(C)[C@H](c3ccoc3)C[C@H]3O[C@]321` [Toosendanin, toosendanin], under “concentration for verification 57.4 ppb, cells cultured 3 days, TLC detection, control 50% ethanol”, the “Amount of ceramide production (Amount of ceramide production of control solution-added group = 1)” value is listed as 1.22. Moreover, the “amount of ceramide production as compared to the control system (in words)” value (toosendanin-added system, 57.4 ppb, Table 2) is listed as “an increase in the amount of ceramide production was recognized”.
